The results in this text go back to patent publication US9890147B2 (BAYER PHARMA AKTIENGESELLSCHAFT, priority 2012, dated 2018).

The target in one experiment is T1, BRD4 (BD1) (Homo sapiens, UniProt O60885).
T1 construct: with relatively long constructs also being possible, preferably amino acids 44-168; made in house; host or cells: E. coli
The experiment can be described thus: Binding assay BRD4/acetylated peptide H4 (TR-FRET protein-protein interaction assay). In outline:
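His6-BRD4 BD1 (aa 67-152, E. coli), usually 10 nM, with biotinylated tetra-acetylated H4 peptide in HEPES pH 7.5 buffer; 11 compound concentrations 0.1 nM–20 μM in duplicate, 10 min preincubation, 1 h at 22 °C then ≥3 h at 4 °C. TR-FRET 665/620 ratio; IC50 by 4-parameter fit.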
On the technique in general: Time-resolved FRET reads energy transfer from a long-lived donor to a nearby acceptor.

A further experiment deals with MOLM-13 cells. The experiment can be described thus: Cell proliferation assay (alamarBlue), MOLM-13. Conditions: Homo sapiens, 96 hours incubation, inhibition of cell proliferation. In kind it is cell-based. In outline: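 Cells in RPMI1640/10% FCS read by alamarBlue fluorescence (ex 530, em 590 nm) after overnight 37 °C incubation, then treated at 1E-5 to 1E-8 M for 96 h. Pre-treatment values subtracted from endpoint values and compared with buffer-only wells; IC50 is 50% proliferation inhibition.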
On the technique in general: The colour change of resazurin is a common sign of viable cells or microbes.

The next experiment has as its system MV4-11 cells. The experiment is described as follows: Cell proliferation assay (alamarBlue), MV4-11. In kind it is cell-based. Conditions: Homo sapiens, 72 hours incubation, inhibition of cell proliferation. The method, then:
(§1) In accordance with the invention, the capability of the substances to inhibit cell proliferation was determined Cell viability was determined using the alamarBlue® reagent (Invitrogen) in a Victor X3 Multilabel Reader (Perkin Elmer). The excitation wavelength was 530 nm and the emission wavelenth […].
The MV4-11 cells (ATCC, CRL 9591) were sown at a concentration of 5000 cells/well in 100 μl growth medium (RPMI1640, 10% FCS) on 96-well microtitre plates.
(§2) After an overnight incubation at 37° C., the fluorescence values (CI values) were determined. The plates were then treated with various substance dilutions (1E-5 M, 3E-6 M, 1E-6M, 3E-7 M, 1E-7 M, 3E-8 M, 1E-8 M) and incubated at 37° C. for 72 (MV4-11-, LOX-IMVI cells), 96 (MOLM-13-, B16F10-, MDA-MB-431-, Caov-3 cells), 120 (MOLP-8-, KMS-12-PE cells) or 168 (LAPC-4 cells) hours. The fluorescence values (CO values) were then determined. For the data analysis, the CI values were subtracted from the CO values and the results were compared between cells treated with different dilutions of the substance or with buffer solution only. These were used to calculate the IC 50 values (substance concentration required for 50% inhibition of cell proliferation).

For the next experiment, the system named is LOX-IMVI cells. The experiment can be described thus: Cell proliferation assay (alamarBlue), LOX-IMVI. In kind it is cell-based. Conditions: Homo sapiens, 72 hours incubation, inhibition of cell proliferation. The method, then: as §1
The LOX-IMVI cells (NCI-60) were sown at a concentration of 1000 cells/well in 100 μl growth medium (RPMI1640, 10% FCS) on 96-well microtitre plates.
as §2

For the next experiment, the system named is MOLP-8 cells. The experiment can be described thus: Cell proliferation assay (alamarBlue), MOLP-8. The following applies: Homo sapiens, 120 hours incubation, inhibition of cell proliferation. In kind it is cell-based. The method, then:
as §1
The MOLP-8 cells (DSMZ, ACC 569) were sown at a concentration of 4000 cells/well in 100 μl growth medium (RPMI1640, 20% FCS) on 96-well microtitre plates.
as §2

The test system of another experiment is KMS-12-PE cells. The experiment can be described thus: Cell proliferation assay (alamarBlue), KMS-12-PE. The format is cell-based. Conditions: Homo sapiens, 120 hours incubation, inhibition of cell proliferation. The method, then: as §1
The KMS-12-PE cells (DSMZ, ACC 606) were sown at a concentration of 4000 cells/well in 100 μl growth medium (RPMI1640, 20% FCS) on 96-well microtitre plates.
as §2

The test system of another experiment is Caov-3 cells. The experiment is described as follows: Cell proliferation assay (alamarBlue), Caov-3. The format is cell-based. The following applies: Homo sapiens; inhibition of cell proliferation, Caov-3 (ovarian carcinoma), 96 hours. As for the experimental part: as §1
The MDA-MB-231 cells (DSMZ, ACC 732) were sown at a concentration of 4000 cells/well in 100 μl growth medium (DMEM/Ham's F12 medium, 10% FCS) on 96-well microtitre plates. The Caov-3 cells (ATCC, HTB-75) were sown at a concentration of 2000 cells/well in 100 μl growth medium (MEM Earle's medium, 10% FCS) on 96-well microtitre plates.
as §2

A word on the IC50: it is the point on the concentration scale where inhibition reaches its midpoint. A high value points to a need for much substance. On to `CNC(=O)N1N=C(c2ccc(-c3cn(C)nn3)cc2)c2cc(OC)c(OC)cc2CC1C` (racemic) [Example 45, (±)-7,8-dimethoxy-N,4-dimethyl-1-[4-(1-methyl-1H-1,2,3-triazol-4-yl)phenyl]-4,5-dihydro-3H-2,3-benzodiazepine-3-carboxamide], for which the IC50 at BRD4 (BD1) amounted to 40 nM; in the experiment with MOLM-13 cells, 230 nM; in the experiment with MV4-11 cells, 140 nM; in the experiment on LOX-IMVI cells it was 350 nM; in the experiment on MOLP-8 cells it was 130 nM; in the experiment on KMS-12-PE cells, 130 nM. For the same compound, inhibition with Caov-3 cells was half-maximal at 240 nM (IC50).
Take `CNC(=O)N1N=C(c2ccc(-c3sc(C)nc3C)cc2)c2cc(OC)c(OC)cc2CC1C` (racemic) [Example 46, (±)-1-[4-(2,4-dimethylthiazol-5-yl)phenyl]-7,8-dimethoxy-N,4-dimethyl-4,5-dihydro-3H-2,3-benzodiazepine-3-carboxamide]: the 50% inhibitory concentration (IC50) on BRD4 (BD1) was 30 nM; with MOLM-13 cells it was 190 nM; in the experiment with MV4-11 cells, 110 nM; in the experiment with LOX-IMVI cells it was 370 nM; with MOLP-8 cells it was 160 nM; with KMS-12-PE cells, 120 nM. This compound returned an IC50 in the experiment on Caov-3 cells of 280 nM.
For the compound `CNC(=O)N1N=C(c2ccc(-c3cnoc3)cc2)c2cc(OC)c(OC)cc2CC1C` (racemic) [Example 52, (±)-1-[4-(isoxazol-4-yl)phenyl]-7,8-dimethoxy-N-dimethyl-4,5-dihydro-3H-2,3-benzodiazepine-3-carboxamide], the half-inhibitory concentration (IC50) at BRD4 (BD1) came out at 50 nM; with MOLM-13 cells, 240 nM; in the experiment with MV4-11 cells, 140 nM; in the experiment with LOX-IMVI cells, 450 nM; with MOLP-8 cells it was 150 nM; in the experiment on KMS-12-PE cells, 130 nM. In the experiment on Caov-3 cells, this compound yielded an IC50 of 350 nM.
Take `CNC(=O)N1N=C(c2ccc(N3CCN(C(=O)C(F)(F)F)CC3)cc2)c2cc(OC)c(OC)cc2CC1C` (racemic) [Example 133, (±)-7,8-dimethoxy-N,4-dimethyl-1-{4-[4-(trifluoroacetyl)piperazin-1-yl]phenyl}-4,5-dihydro-3H-2,3-benzodiazepine-3-carboxamide]: the IC50 was found to be 50 nM on BRD4 (BD1); 180 nM in the experiment on MOLM-13 cells; 80 nM in the experiment with MV4-11 cells; 170 nM in the experiment on LOX-IMVI cells; 70 nM in the experiment with MOLP-8 cells; 80 nM with KMS-12-PE cells. Also, the IC50 in the experiment on Caov-3 cells amounted to 180 nM.
As to `CNC(=O)N1N=C(c2ccc(-n3ccc(-c4ccc(F)cc4)n3)cc2)c2cc(OC)c(OC)cc2C[C@@H]1C` [Example 150.1, (4S)-1-{4-[3-(4-fluorophenyl)-1H-pyrazol-1-yl]phenyl}-7,8-dimethoxy-N,4-dimethyl-4,5-dihydro-3H-2,3-benzodiazepine-3-carboxamide], the IC50 is 110 nM at BRD4 (BD1); 230 nM in the experiment with MOLM-13 cells; 130 nM in the experiment on MV4-11 cells; 340 nM with LOX-IMVI cells; 230 nM in the experiment with MOLP-8 cells; 180 nM in the experiment on KMS-12-PE cells. The compound also registered an IC50 with Caov-3 cells of 340 nM.
As for `CNC(=O)N1N=C(c2ccc(-c3c(C)noc3C)cc2)c2cc(Cl)c(OC)cc2CC1C` (racemic) [Example 157, (±)-8-chloro-1-[4-(3,5-dimethylisoxazol-4-yl)-phenyl]-7-methoxy-N,4-dimethyl-4,5-dihydro-3H-2,3-benzodiazepine-3-carboxamide], the half-inhibitory concentration (IC50) at BRD4 (BD1) was determined as 210 nM; with MOLM-13 cells, 90 nM; in the experiment with MV4-11 cells, 190 nM; with LOX-IMVI cells it was 580 nM; in the experiment on MOLP-8 cells, 120 nM; with KMS-12-PE cells, 240 nM. In the experiment with Caov-3 cells, this compound registered an IC50 of 420 nM.
On to `CNC(=O)N1N=C(c2ccc(-c3c(C)nn(C)c3C)cc2)c2cc(OC)c(OC)cc2C[C@@H]1C` [Example 51.2, (4S)-7,8-dimethoxy-N,4-dimethyl-1-[4-(1,3,5-trimethyl-1H-pyrazol-4-yl)phenyl]-4,5-dihydro-3H-2,3-benzodiazepine-3-carboxamide], for which the IC50 at BRD4 (BD1) is 30 nM; with MOLM-13 cells it was 110 nM; in the experiment with MV4-11 cells it was 50 nM; in the experiment with LOX-IMVI cells, 170 nM; in the experiment with MOLP-8 cells, 50 nM; in the experiment on KMS-12-PE cells, 40 nM. Moreover, in the experiment with Caov-3 cells, the IC50 is 130 nM.
As to `CNC(=O)N1N=C(c2ccc(N3CCN(S(C)(=O)=O)CC3)cc2)c2cc(OC)c(OC)cc2CC1C` (racemic) [Example 135, (±)-7,8-dimethoxy-N,4-dimethyl-1-{4-[4-(methylsulphonyl)piperazin-1-yl]phenyl}-4,5-dihydro-3H-2,3-benzodiazepine-3-carboxamide], the IC50 on BRD4 (BD1) came to 50 nM; in the experiment on MOLM-13 cells it was 200 nM; in the experiment on MV4-11 cells it was 120 nM; in the experiment on LOX-IMVI cells, 360 nM; with MOLP-8 cells it was 130 nM; in the experiment on KMS-12-PE cells, 120 nM. The IC50 in the experiment on Caov-3 cells stood at 300 nM.
Consider `CNC(=O)N1N=C(c2ccc(N3CCNCC3)cc2)c2cc(OC)c(OC)cc2CC1C` (racemic) [Example 131, (±)-7,8-dimethoxy-N,4-dimethyl-1-[4-(piperazin-1-yl)phenyl]-4,5-dihydro-3H-2,3-benzodiazepine-3-carboxamide], for which the 50% inhibitory concentration (IC50) is 50 nM at BRD4 (BD1); 110 nM in the experiment with MOLM-13 cells; 40 nM with MV4-11 cells; 70 nM in the experiment with LOX-IMVI cells; 30 nM with MOLP-8 cells; 30 nM with KMS-12-PE cells. For the same compound, the IC50 with Caov-3 cells is 50 nM.
For the compound `CNC(=O)N1N=C(c2ccc(N3CC(F)C3)cc2)c2cc(OC)c(OC)cc2CC1C` (racemic) [Example 129, (±)-1-[4-(3-fluoroazetidin-1-yl)phenyl]-7,8-dimethoxy-N,4-dimethyl-4,5-dihydro-3H-2,3-benzodiazepine-3-carboxamide], the IC50 on BRD4 (BD1) came to 50 nM; in the experiment with MOLM-13 cells it was 220 nM; in the experiment with MV4-11 cells, 180 nM; in the experiment on LOX-IMVI cells, 580 nM; in the experiment on MOLP-8 cells, 150 nM; in the experiment on KMS-12-PE cells, 120 nM. Moreover, in the experiment on Caov-3 cells, the IC50 was 420 nM.
Take `CNC(=O)N1N=C(c2ccc(-c3c(C)nn(C)c3C)cc2)c2cc(OC)c(OC)cc2CC1C` (racemic) [Example 51, (±)-7,8-dimethoxy-N,4-dimethyl-1-[4-(1,3,5-trimethyl-1H-pyrazol-4-yl)phenyl]-4,5-dihydro-3H-2,3-benzodiazepine-3-carboxamide]: the IC50 at BRD4 (BD1) amounted to 30 nM; in the experiment with MOLM-13 cells, 210 nM; with MV4-11 cells, 120 nM; in the experiment on LOX-IMVI cells, 350 nM; with MOLP-8 cells, 120 nM; in the experiment on KMS-12-PE cells, 90 nM. In the experiment on Caov-3 cells, the IC50 turned out to be 280 nM.
As to `CNC(=O)N1N=C(c2ccc(-c3cccc(C(=O)N4CCCC4)c3)cc2)c2cc(OC)c(OC)cc2CC1C` (racemic) [Example 96, (±)-7,8-dimethoxy-N,4-dimethyl-1-[3′-(pyrrolidin-1-ylcarbonyl)biphenyl-4-yl]-4,5-dihydro-3H-2,3-benzodiazepine-3-carboxamide], the IC50 was 40 nM on BRD4 (BD1); 250 nM with MOLM-13 cells; 70 nM in the experiment with MV4-11 cells; 220 nM in the experiment on LOX-IMVI cells; 90 nM with MOLP-8 cells; 70 nM in the experiment on KMS-12-PE cells. Further, half-maximal inhibition in the experiment on Caov-3 cells (IC50) was put at 170 nM.
